Assay [1] deals with methicillin-resistant S. aureus (MRSA, USA300 JE2). The experiment in a line: Ciprofloxacin (CFX) potentiation in MRSA growth inhibition assay. In kind it is cell-based, Staphylococcus aureus. The settings on record: for EC50: read-out: EC50 S. aureus (USA300 JE2) Compound + CFX (9.4 μM), in presence of half-MIC CFX (9.4 μM). As to the method:
(§1) 2.1. Biological and biochemical methods
(§2) Bacterial strains and culture conditions
(§3) Strains utilized in the present study are detailed in Table S1. All strains used were cultivated on Mueller Hinton Agar (MHA) and grown to stationary-phase in Mueller Hinton Broth (MHB) at 37 °C for 16 h, with shaking at 180 r.p.m.
(§4) Minimum inhibitory concentration (MIC) assays
(§5) MIC assays were performed in 96 well plates and MICs were determined in accordance with the broth microdilution protocol.4 Strains grown to stationary-phase in MHB were adjusted to 5 x 10^5 colony-forming units (CFU)/mL in fresh MHB (100 µL/well) supplemented with DMSO to ensure a constant concentration of 0.5% (v/v) DMSO across all experiments. Where […]
(§6) or H2O2 (200 μM). Test compounds were prepared as two-fold serial dilutions. Cells were […]
(§7) as the lowest concentration with no visible bacterial growth, and the optical density at 600 nm (OD600) was recorded. OD600 measurements were background corrected against no-inocula control and normalized to DMSO control for dose-response analysis. The EC50 value mean and SEM were calculated from individual EC50 values from three biological replicates. […]

Another assay concerns E. coli K-12 BW25113. Kind of assay: MIC / growth inhibition assay (end-point OD600), single agent. In kind it is cell-based, Escherichia coli. The settings on record: for EC50: Escherichia coli, BW25113, end-point OD600 after 18 h, read-out: EC50 E. coli (K12 BW25113) Compound only.
From the text: (§8) Minimum inhibitory concentration (MIC) assays were used to evaluate the antimicrobial activity of compounds against Gram-negative (E. coli) and Gram-positive (S. aureus) bacteria. […] Gram-positive bacteria are more susceptible to small-molecule penetration, and compounds were therefore assessed for growth inhibition against the S. aureus SH1000 strain.
as §1, §2, §3, §4, §5, §6, §7

Assay [2] has as its system MRSA (USA300 JE2). The experiment in a line: Growth inhibition in the presence of mitomycin-C. In kind it is cell-based, Staphylococcus aureus. The settings on record: read-out: EC50 Compound + MMC (0.40 µM); MRSA USA300 JE2, mitomycin-C 0.40 µM. The protocol: (§9) The analogue panel was further tested for potentiation of alternative DNA-damaging agents Mitomycin-C (MMC) and hydrogen peroxide (Table S2), which function via alkylation and oxidization DNA bases, respectively.
as §1, §2, §3, §4, §5, §6, §7

For the next assay, the system named is S. aureus SH1000. Kind of assay: MIC / growth inhibition assay (end-point OD600), single agent. It is filed as cell-based. The settings on record: Staphylococcus aureus, SH1000, 18 h, end-point OD600 after 18 h, read-out: EC50 S. aureus (SH1000) Compound only.
From the text: as §8, §1, §2, §3, §4, §5, §6, §7

Assay [3] deals with methicillin-resistant S. aureus (MRSA, USA300 JE2). The assay is described as above. In kind it is cell-based, Staphylococcus aureus. The conditions noted are these: for EC50: Staphylococcus aureus, 18 h, read-out: EC50 S. aureus (USA300 JE2) Compound only, single agent, end-point OD600 after 18 h; for fold less potent against JE2 compared to SH1000: ratio of single-agent EC50 values.
From the text: as §8
Methicillin-resistant S. aureus (MRSA) is a multi-drug resistant bacterium responsible for a large number of nosocomial infections.[34] The emergence of community associated (CA)-MRSA capable of infection of healthy individuals highlights its significance and clinical relevance.[35]
as §1, §2, §3, §4, §5, §6, §7

The test system of assay [4] is MRSA (USA300 JE2). The experiment in a line: Growth inhibition in the presence of H2O2. It is filed as cell-based, Staphylococcus aureus. The conditions noted are these: read-out: EC50 Compound + H2O2 (200 µM); MRSA USA300 JE2, H2O2 200 µM. As to the method: as §9, §1, §2, §3, §4, §5, §6, §7

Regarding `CCn1cc(C(=O)O)c(=O)c2cnc(N3CCN(C(=S)Nc4cccc(F)c4)CC3)nc21` [Compound 2], the EC50 – broadly, the concentration that produces a half-maximal response – in assay [1] is 730 ± 120 nM; in the assay on E. coli K-12 BW25113 it was > 100000 nM; with MRSA (USA300 JE2) [2] it was 21000 ± 2200 nM; with S. aureus SH1000, 6900 ± 400 nM; in assay [3] it was 27000 ± 400 nM; in the assay with MRSA (USA300 JE2) [4] it was 24000 ± 3000 nM.
For the compound `CCn1cc(C(=O)O)c(=O)c2cnc(N3CCN(C(=S)Nc4cc(C(F)(F)F)cc(C(F)(F)F)c4)CC3)nc21` [Compound 3], the EC50 in assay [1] is 620 ± 90 nM; in the assay with E. coli K-12 BW25113, > 100000 nM; in the assay on MRSA (USA300 JE2) [2] it was 1500 ± 100 nM; with S. aureus SH1000, 3600 ± 400 nM; in assay [3], 2700 ± 600 nM; with MRSA (USA300 JE2) [4], 2400 ± 200 nM.
`CCn1cc(C(=O)O)c(=O)c2cnc(N3CCN(C(=S)Nc4ccc(C(F)(F)F)cc4)CC3)nc21` [Compound 4]: the “fold increase in potency of para- over meta-substituted analogue, potentiation by CFX” value in assay [1] (JE2 + CFX, 4 vs 1, 10 vs 7, 14 vs 13) is ~5 fold. Besides, the EC50 is 240 ± 30 nM in assay [1]; > 100000 nM in the assay with E. coli K-12 BW25113; 2900 ± 200 nM in the assay with MRSA (USA300 JE2) [2]; 5200 ± 1100 nM in the assay with S. aureus SH1000; 4000 ± 300 nM in assay [3]; 4700 ± 900 nM in the assay on MRSA (USA300 JE2) [4].
In the case of `CCn1cc(C(=O)O)c(=O)c2cnc(N3CCN(C(=S)Nc4cc(Cl)cc(Cl)c4)CC3)nc21` [Compound 6], the EC50 is 120 ± 40 nM in assay [1]; > 100000 nM in the assay with E. coli K-12 BW25113; 1500 nM in the assay on MRSA (USA300 JE2) [2]; 2300 ± 300 nM in the assay with S. aureus SH1000; 1800 ± 100 nM in assay [3]; 2500 ± 400 nM in the assay with MRSA (USA300 JE2) [4].
Take `O=C(O)c1cn(C2CC2)c2cc(N3CCN(C(=S)Nc4cccc(C(F)(F)F)c4)CC3)c(F)cc2c1=O` [Compound 7]: the EC50 in assay [1] is 140 nM; with E. coli K-12 BW25113, 410 nM; in the assay with MRSA (USA300 JE2) [2] it was 2800 ± 400 nM; with S. aureus SH1000, 190 ± 60 nM; in assay [3], 3700 ± 500 nM; in the assay with MRSA (USA300 JE2) [4] it was 5500 ± 600 nM. In assay [3], the “fold less potent against JE2 compared to SH1000” value (“fold less potent against JE2” below) was > 20 fold.
For the compound `O=C(O)c1cn(C2CC2)c2cc(N3CCN(C(=S)Nc4cccc(F)c4)CC3)c(F)cc2c1=O` [Compound 8], the EC50 in assay [1] turned out to be 220 ± 50 nM; in the assay on E. coli K-12 BW25113, 240 ± 30 nM; with MRSA (USA300 JE2) [2], 3400 ± 900 nM; with S. aureus SH1000 it was 80 ± 10 nM; in assay [3], 4800 ± 900 nM; in the assay on MRSA (USA300 JE2) [4], 4600 ± 400 nM. Further, in the assay with E. coli K-12 BW25113, the “fold higher potency than other CFX derivatives in E. coli” value is given as “approximately 2 fold”. Further, the “fold less potent against JE2” value in assay [3] is > 20 fold.
Regarding `O=C(O)c1cn(C2CC2)c2cc(N3CCN(C(=S)Nc4cc(C(F)(F)F)cc(C(F)(F)F)c4)CC3)c(F)cc2c1=O` [Compound 9], the EC50 in assay [1] came to 470 ± 70 nM; with E. coli K-12 BW25113 it was 390 ± 10 nM; in the assay with MRSA (USA300 JE2) [2], 1800 ± 300 nM; in the assay on S. aureus SH1000, 1500 ± 300 nM; in assay [3], 3500 ± 400 nM; with MRSA (USA300 JE2) [4] it was 2600 ± 300 nM. Further, the “fold more potent against E. coli than SH1000” value with E. coli K-12 BW25113 is ~5 fold.
Take `O=C(O)c1cn(C2CC2)c2cc(N3CCN(C(=S)Nc4cccc(Cl)c4)CC3)c(F)cc2c1=O` [Compound 11]: the EC50 was determined as 84 ± 7 nM in assay [1]; 460 ± 100 nM in the assay on E. coli K-12 BW25113; 2200 ± 600 nM with MRSA (USA300 JE2) [2]; 120 ± 40 nM with S. aureus SH1000; 2800 ± 100 nM in assay [3]; 3200 nM in the assay on MRSA (USA300 JE2) [4]. In assay [3], the “fold less potent against JE2” value is given as > 20 fold.
Consider `O=C(O)c1cn(C2CC2)c2cc(N3CCN(C(=S)Nc4cc(Cl)cc(Cl)c4)CC3)c(F)cc2c1=O` [Compound 12], for which the EC50 in assay [1] is 43 ± 11 nM; in the assay with E. coli K-12 BW25113, 420 ± 20 nM; with MRSA (USA300 JE2) [2] it was 800 nM; with S. aureus SH1000, 84 ± 7 nM; in assay [3], 3600 ± 400 nM; with MRSA (USA300 JE2) [4], 2900 ± 800 nM. Moreover, the “fold less potent against JE2” value in assay [3] is > 20 fold.

(Values after PMC6892255, “Identification of a potent small-molecule inhibitor of bacterial DNA repair that potentiates quinolone antibiotic activity in methicillin-resistant Staphylococcus aureus^” (Bioorganic & Medicinal Chemistry, 2019).)
